From patent publication US12071453B2, “Neuroactive steroids, compositions, and uses thereof” (Sage Therapeutics, Inc., priority 2013, dated 2024)

Experiments:
[1] = molecular target: T1, GABAA receptors composed of the α1β2γ2 subunits (GABRA1/GABRB2/GABRG2) (Homo sapiens, UniProt P14867+P47870); test: Two Electrode Voltage Clamp (TEVC), GABA receptor potentiation in Xenopus laevis oocytes, α1β2γ2; assay type: cell-based; settings: 10 μM compound, 10 μM GABA, read-out: GABA (α1β2γ2) % efficacy at 10 μM
T1 construct: expressed in transfected cells; host or cells: Xenopus laevis oocytes, injected (ratio 1:1:1)
T1 sequence (P14867 28-456): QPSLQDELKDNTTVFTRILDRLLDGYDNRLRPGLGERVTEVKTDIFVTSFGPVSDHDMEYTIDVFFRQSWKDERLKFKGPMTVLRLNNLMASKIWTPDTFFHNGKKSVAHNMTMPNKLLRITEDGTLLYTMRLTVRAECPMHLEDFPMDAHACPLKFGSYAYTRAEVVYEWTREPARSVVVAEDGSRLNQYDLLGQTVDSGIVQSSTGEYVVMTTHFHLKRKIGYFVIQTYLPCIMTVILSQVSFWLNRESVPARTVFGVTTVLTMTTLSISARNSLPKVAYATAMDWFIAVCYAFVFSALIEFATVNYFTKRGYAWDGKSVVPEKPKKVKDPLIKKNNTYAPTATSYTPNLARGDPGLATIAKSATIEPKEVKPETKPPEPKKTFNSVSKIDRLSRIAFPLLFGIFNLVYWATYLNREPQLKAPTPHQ
T1 sequence (P47870 26-512): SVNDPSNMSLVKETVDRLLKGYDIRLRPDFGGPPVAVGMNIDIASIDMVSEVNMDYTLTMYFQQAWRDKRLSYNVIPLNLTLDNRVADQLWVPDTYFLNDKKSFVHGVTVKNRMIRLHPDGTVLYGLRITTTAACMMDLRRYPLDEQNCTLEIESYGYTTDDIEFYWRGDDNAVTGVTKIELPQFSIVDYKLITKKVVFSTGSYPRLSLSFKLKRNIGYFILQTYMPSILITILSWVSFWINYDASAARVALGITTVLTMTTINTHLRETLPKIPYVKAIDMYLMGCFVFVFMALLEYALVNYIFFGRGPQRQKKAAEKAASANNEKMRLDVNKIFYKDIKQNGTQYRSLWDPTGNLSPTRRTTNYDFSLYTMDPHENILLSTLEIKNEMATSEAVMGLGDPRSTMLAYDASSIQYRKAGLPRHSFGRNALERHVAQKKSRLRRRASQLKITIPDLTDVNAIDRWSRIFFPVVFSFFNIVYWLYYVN
T1 sequence (P18507 40-475 partner): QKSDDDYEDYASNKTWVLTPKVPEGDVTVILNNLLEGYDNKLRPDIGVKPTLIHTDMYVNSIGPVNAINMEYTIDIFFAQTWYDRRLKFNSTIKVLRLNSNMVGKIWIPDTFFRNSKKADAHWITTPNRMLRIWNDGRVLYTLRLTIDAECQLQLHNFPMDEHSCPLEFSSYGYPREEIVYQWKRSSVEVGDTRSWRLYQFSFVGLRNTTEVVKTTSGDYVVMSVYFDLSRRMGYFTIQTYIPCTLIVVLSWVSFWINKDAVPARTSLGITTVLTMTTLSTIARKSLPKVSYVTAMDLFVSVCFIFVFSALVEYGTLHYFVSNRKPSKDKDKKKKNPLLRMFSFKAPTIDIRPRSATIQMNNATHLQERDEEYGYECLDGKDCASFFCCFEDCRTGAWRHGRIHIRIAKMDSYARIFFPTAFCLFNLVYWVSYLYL
Description: The Two Electrode Voltage Clamp (TEVC) technique was used to investigate the effects of compounds at a concentration of 10 μM on GABAA receptors composed of the α1β2γ2 or α4β3δ subunits expressed in oocytes from the Xenopus laevis. GABA-evoked currents were recorded from oocytes that expressed the GABA receptors and the modulatory effects of the test items on these currents were investigated.
Ovaries were harvested from Xenopus laevis females that had been deeply anesthetized by cooling at 4° C. and immersion in Tricaine methanesulfonate (MS-222 at a concentration of 150 mg/L) in sodium bicarbonate (300 mg/L). Once anesthetized the animal was decapitated and pithed following the rules of animal rights from the Geneva canton. A small piece of ovary was isolated for immediate preparation while the remaining part was placed at 4° C. in a sterile Barth solution containing in mM NaCl 88, KCl 1, NaHCO3 2.4, HEPES 10, MgSO4·7H2O 0.82, Ca(NO3)2·4H2O 0.33, CaCl2·6H2O 0.41, at pH 7.4, and supplemented with 20 μg/ml of kanamycin, 100 unit/ml penicillin and 100 μg/ml streptomycin. All recordings were performed at 18° C. and cells were super-fused with medium containing in mM: NaCl 82.5, KCl 2.5, HEPES 5, CaCl2·2H2O, ·6H2O 1, pH 7.4.
Plasmids containing the RNAs of the human GABRA1/GABRB2/GABRG2 and GABRA4/GABRB3/GABRD genes were injected into oocytes using a proprietary automated injection device (Hogg el al., J. Neurosci. Methods, (2008) 169: 65-75). These genes encode for the α1β2γ2 and α4β3δ GABAA subunits respectively. Receptor expression was assessed using electrophysiology at least two days later. The ratio of RNA injection for α1β2γ2 was 1:1:1 and for α4β3δ was 5:1:5. Electrophysiological recordings were made using an automated process equipped with standard TEVC and data were captured and analyzed using a proprietary data acquisition and analysis software running under Matlab (Mathworks Inc.). The membrane potential of the oocytes was maintained at −80 mV throughout the experiments. To explore the effects of proprietary compounds, currents were evoked by applying 10 μM (α1β2γ2) or 3 μM (α4β3δ) GABA for 30 s. These concentrations approximated the EC50 concentration of GABA at each receptor subtype. Oocytes were then re-exposed to GABA again for 30 s. 15 s after beginning the GABA application, test article was co-applied at a concentration of 10 μM for 15 s. Potentiation of the peak current was assessed. Data was filtered at 10 Hz, captured at 100 Hz and analyzed using proprietary data acquisition and analysis software running under Matlab (Mathworks Inc.). For statistical analysis values were computed either with Excel (Microsoft) or Matlab (mathworks Inc.). To obtain mean measurements with standard deviations, all experiments were carried out using at least three cells.

[2] = molecular target: [35S]-TBPS binding in rat brain cortical membranes; test: Steroid inhibition of [35S]-TBPS binding, rat brain cortical membranes; settings: 3 nM [35S]-TBPS, in the presence of 5 μM GABA, read-out: 35S-TBPS Radioligand Displacement (IC50)
Description: TBPS binding assays using rat brain cortical membranes in the presence of 5 μM GABA has been described (Gee et al, J. Pharmacol. Exp. Ther. 1987, 241, 346-353; Hawkinson et al, Mol. Pharmacol. 1994, 46, 977-985; Lewin, A. H et al., Mol. Pharmacol. 1989, 35, 189-194).
Briefly, cortices are rapidly removed following decapitation of carbon dioxide-anesthetized Sprague-Dawley rats (200-250 g). The cortices are homogenized in 10 volumes of ice-cold 0.32 M sucrose using a glass/teflon homogenizer and centrifuged at 1500×g for 10 min at 4° C. The resultant supernatants are centrifuged at 10,000×g for 20 min at 4° C. to obtain the P2 pellets. The P2 pellets are resuspended in 200 mM NaCl/50 mM Na—K phosphate pH 7.4 buffer and centrifuged at 10,000×g for 10 min at 4° C. This washing procedure is repeated twice and the pellets are resuspended in 10 volumes of buffer. Aliquots (100 μL) of the membrane suspensions are incubated with 3 nM [^35S]-TBPS and 5 μL aliquots of test drug dissolved in dimethyl sulfoxide (DMSO) (final 0.5%) in the presence of 5 μM GABA. The incubation is brought to a final volume of 1.0 mL with buffer. Nonspecific binding is determined in the presence of 2 μM unlabeled TBPS and ranged from 15 to 25%. Following a 90 min incubation at room temp, the assays are terminated by filtration through glass fiber filters (Schleicher and Schuell No. 32) using a cell harvester (Brandel) and rinsed three times with ice-cold buffer. Filter bound radioactivity is measured by liquid scintillation spectrometry. Non-linear curve fitting of the overall data for each drug averaged for each concentration is done using Prism (GraphPad). […] The concentration of test compound producing 50% inhibition (IC50) of specific binding and the maximal extent of inhibition (Imax) are determined for the individual experiments with the same model used for the overall data and then the mean±SEM.s of the individual experiments are calculated.
Various compounds are or can be screened to determine their potential as modulators of [^35S]-TBPS binding in vitro. These assays are or can be performed in accordance with the above discussed procedures.

Row | Compound | Emax at 10 µM [1] | IC50 [2]
1 | COC[C@]12CC[C@@](C)(O)C[C@@H]1CC[C@H]1[C@@H]3CC[C@H](C(=O)Cn4nnc(C)n4)[C@@]3(C)CC[C@@H]12 [Compound 17] | 1000 to 1500% | > 500 nM
2 | COC[C@]12CC[C@@](C)(O)C[C@@H]1CC[C@H]1[C@@H]3CC[C@H](C(=O)Cn4cc(C)cn4)[C@@]3(C)CC[C@@H]12 [Compound 20] | 500 to 1000% | –
3 | COC[C@]12CC[C@@](C)(O)C[C@@H]1CC[C@H]1[C@@H]3CC[C@H](C(=O)Cn4cnc(C)c4)[C@@]3(C)CC[C@@H]12 [Compound 23] | 500 to 1000% | 100 to 500 nM
4 | COC[C@]12CC[C@@](C)(O)C[C@@H]1CC[C@H]1[C@@H]3CC[C@H](C(=O)Cn4cc(S(C)(=O)=O)cn4)[C@@]3(C)CC[C@@H]12 [Compound 24] | 500 to 1000% | 100 to 500 nM
5 | CCOC[C@]12CC[C@@](C)(O)C[C@@H]1CC[C@H]1[C@@H]3CC[C@H](C(=O)Cn4nnc(C)n4)[C@@]3(C)CC[C@@H]12 [Compound 25] | 500 to 1000% | 10 to 50 nM
6 | COC[C@]12CC[C@@](C)(O)C[C@H]1CC[C@H]1[C@@H]3CC[C@H](C(=O)Cn4nccn4)[C@@]3(C)CC[C@@H]12 [Compound 31] | 500 to 1000% | 10 to 50 nM
7 | COC[C@]12CC[C@@](C)(O)C[C@@H]1CC[C@H]1[C@@H]3CC[C@H](C(=O)Cn4ncc5ncccc54)[C@@]3(C)CC[C@@H]12 [Compound 38] | 500 to 1000% | 50 to 100 nM
8 | COC[C@]12CC[C@@](C)(O)C[C@@H]1CC[C@H]1[C@@H]3CC[C@H](C(=O)Cn4nnc5ccccc54)[C@@]3(C)CC[C@@H]12 [Compound 39] | 500 to 1000% | 10 to 50 nM
9 | COC[C@]12CC[C@@](C)(O)C[C@@H]1CC[C@H]1[C@@H]3CC[C@H](C(=O)Cn4nnc5ccc(F)cc54)[C@@]3(C)CC[C@@H]12 [Compound 41] | 1000 to 1500% | 10 to 50 nM
10 | COC[C@]12CC[C@@](C)(O)C[C@@H]1CC[C@H]1[C@@H]3CC[C@H](C(=O)Cn4nnc5cc(F)ccc54)[C@@]3(C)CC[C@@H]12 [Compound 42] | 500 to 1000% | 10 to 50 nM
11 | COC[C@]12CC[C@@](C)(O)C[C@@H]1CC[C@H]1[C@@H]3CC[C@H](C(=O)Cn4cc5ccncc5n4)[C@@]3(C)CC[C@@H]12 [Compound 44] | 1000 to 1500% | 10 to 50 nM
12 | COC[C@]12CC[C@@](C)(O)C[C@@H]1CC[C@H]1[C@@H]3CC[C@H](C(=O)Cn4cnc5ccccc54)[C@@]3(C)CC[C@@H]12 [Compound 46] | 1000 to 1500% | 50 to 100 nM
13 | COC[C@]12CC[C@@](C)(O)C[C@@H]1CC[C@H]1[C@@H]3CC[C@H](C(=O)Cn4nc5cccc(F)c5n4)[C@@]3(C)CC[C@@H]12 [Compound 49] | 500 to 1000% | 10 to 50 nM
14 | COC[C@]12CC[C@@](C)(O)C[C@@H]1CC[C@H]1[C@@H]3CC[C@H](C(=O)Cn4nc5ccc(OC)cc5n4)[C@@]3(C)CC[C@@H]12 [Compound 50] | 500 to 1000% | 10 to 50 nM
15 | COC[C@]12CC[C@@](C)(O)C[C@@H]1CC[C@H]1[C@@H]3CC[C@H](C(=O)Cn4nnc5c(F)c(F)ccc54)[C@@]3(C)CC[C@@H]12 [Compound 53] | 50 to 500% | 50 to 100 nM
16 | COC[C@]12CC[C@@](C)(O)C[C@@H]1CC[C@H]1[C@@H]3CC[C@H](C(=O)Cn4nnc5c(F)cc(F)cc54)[C@@]3(C)CC[C@@H]12 [Compound 56] | 50 to 500% | 50 to 100 nM
17 | COC[C@]12CC[C@@](C)(O)C[C@@H]1CC[C@H]1[C@@H]3CC[C@H](C(=O)Cn4nnc5c(Cl)cccc54)[C@@]3(C)CC[C@@H]12 [Compound 60] | 50 to 500% | 10 to 50 nM
18 | COC[C@]12CC[C@@](C)(O)C[C@@H]1CC[C@H]1[C@@H]3CC[C@H](C(=O)Cn4nc5cccc(Cl)c5n4)[C@@]3(C)CC[C@@H]12 [Compound 61] | 500 to 1000% | < 10 nM
19 | COC[C@]12CC[C@@](C)(O)C[C@@H]1CC[C@H]1[C@@H]3CC[C@H](C(=O)Cn4nnc5c(OC)c(OC)ccc54)[C@@]3(C)CC[C@@H]12 [Compound 63] | 500 to 1000% | 10 to 50 nM
20 | COC[C@]12CC[C@@](C)(O)C[C@@H]1CC[C@H]1[C@@H]3CC[C@H](C(=O)Cn4nc5cc(OC)cc(OC)c5n4)[C@@]3(C)CC[C@@H]12 [Compound 65] | 500 to 1000% | < 10 nM
21 | COC[C@]12CC[C@@](C)(O)C[C@H]1CC[C@H]1[C@@H]3CC[C@H](C(=O)Cn4nc5ccc(F)cc5n4)[C@@]3(C)CC[C@@H]12 [Compound 73] | 500 to 1000% | < 10 nM
22 | COC[C@]12CC[C@@](C)(O)C[C@H]1CC[C@H]1[C@@H]3CC[C@H](C(=O)Cn4nnc5ccc(F)cc54)[C@@]3(C)CC[C@@H]12 [Compound 74] | 500 to 1000% | < 10 nM
23 | COC[C@]12CC[C@@](C)(O)C[C@H]1CC[C@H]1[C@@H]3CC[C@H](C(=O)Cn4nnc5cc(F)ccc54)[C@@]3(C)CC[C@@H]12 [Compound 75] | 500 to 1000% | 10 to 50 nM
24 | COC[C@]12CC[C@@](C)(O)C[C@H]1CC[C@H]1[C@@H]3CC[C@H](C(=O)Cn4nnc5ccc(F)c(F)c54)[C@@]3(C)CC[C@@H]12 [Compound 77] | 1000 to 1500% | < 10 nM
25 | COC[C@]12CC[C@@](C)(O)C[C@H]1CC[C@H]1[C@@H]3CC[C@H](C(=O)Cn4cnc5ccccc54)[C@@]3(C)CC[C@@H]12 [Compound 80] | 500 to 1000% | 10 to 50 nM
26 | COC[C@]12CC[C@@](C)(O)C[C@H]1CC[C@H]1[C@@H]3CC[C@H](C(=O)Cn4nnc5cccc(F)c54)[C@@]3(C)CC[C@@H]12 [Compound 81] | 500 to 1000% | 10 to 50 nM
27 | COC[C@]12CC[C@@](C)(O)C[C@H]1CC[C@H]1[C@@H]3CC[C@H](C(=O)Cn4nc5cccc(F)c5n4)[C@@]3(C)CC[C@@H]12 [Compound 83] | 1000 to 1500% | < 10 nM
